The results in this text go back to ChEMBL document CHEMBL1201862, “PubChem BioAssay data set” (2004).

The target in assay [1] is Glyceraldehyde-3-phosphate dehydrogenase (Homo sapiens, UniProt P04406).
Assay [2] has as its target T1, Dual specificity protein phosphatase 6 (Rattus norvegicus, UniProt Q64346).
T1 sequence (Q64346 whole entry): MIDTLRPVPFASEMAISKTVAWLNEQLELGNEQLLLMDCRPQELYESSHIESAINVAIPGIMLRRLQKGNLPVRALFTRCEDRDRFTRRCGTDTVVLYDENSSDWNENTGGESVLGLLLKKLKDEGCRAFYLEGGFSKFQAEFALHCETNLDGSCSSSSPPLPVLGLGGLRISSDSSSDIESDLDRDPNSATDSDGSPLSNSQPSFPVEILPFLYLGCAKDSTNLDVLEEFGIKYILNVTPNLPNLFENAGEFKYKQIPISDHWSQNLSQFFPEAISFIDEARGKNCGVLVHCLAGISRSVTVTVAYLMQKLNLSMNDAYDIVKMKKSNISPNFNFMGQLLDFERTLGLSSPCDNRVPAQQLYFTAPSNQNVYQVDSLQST

Assay [3] deals with T1, Dual specificity protein phosphatase 6. The assay is classed as functional.
The target in assay [4] is Voltage-dependent T-type calcium channel subunit alpha-1H (Homo sapiens, UniProt O95180). The assay is classed as functional.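 Also: channel activity triggered by adding a high calcium stimulation buffer.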
Voltage-dependent T-type calcium channel subunit alpha-1H, sequence (O95180 whole entry): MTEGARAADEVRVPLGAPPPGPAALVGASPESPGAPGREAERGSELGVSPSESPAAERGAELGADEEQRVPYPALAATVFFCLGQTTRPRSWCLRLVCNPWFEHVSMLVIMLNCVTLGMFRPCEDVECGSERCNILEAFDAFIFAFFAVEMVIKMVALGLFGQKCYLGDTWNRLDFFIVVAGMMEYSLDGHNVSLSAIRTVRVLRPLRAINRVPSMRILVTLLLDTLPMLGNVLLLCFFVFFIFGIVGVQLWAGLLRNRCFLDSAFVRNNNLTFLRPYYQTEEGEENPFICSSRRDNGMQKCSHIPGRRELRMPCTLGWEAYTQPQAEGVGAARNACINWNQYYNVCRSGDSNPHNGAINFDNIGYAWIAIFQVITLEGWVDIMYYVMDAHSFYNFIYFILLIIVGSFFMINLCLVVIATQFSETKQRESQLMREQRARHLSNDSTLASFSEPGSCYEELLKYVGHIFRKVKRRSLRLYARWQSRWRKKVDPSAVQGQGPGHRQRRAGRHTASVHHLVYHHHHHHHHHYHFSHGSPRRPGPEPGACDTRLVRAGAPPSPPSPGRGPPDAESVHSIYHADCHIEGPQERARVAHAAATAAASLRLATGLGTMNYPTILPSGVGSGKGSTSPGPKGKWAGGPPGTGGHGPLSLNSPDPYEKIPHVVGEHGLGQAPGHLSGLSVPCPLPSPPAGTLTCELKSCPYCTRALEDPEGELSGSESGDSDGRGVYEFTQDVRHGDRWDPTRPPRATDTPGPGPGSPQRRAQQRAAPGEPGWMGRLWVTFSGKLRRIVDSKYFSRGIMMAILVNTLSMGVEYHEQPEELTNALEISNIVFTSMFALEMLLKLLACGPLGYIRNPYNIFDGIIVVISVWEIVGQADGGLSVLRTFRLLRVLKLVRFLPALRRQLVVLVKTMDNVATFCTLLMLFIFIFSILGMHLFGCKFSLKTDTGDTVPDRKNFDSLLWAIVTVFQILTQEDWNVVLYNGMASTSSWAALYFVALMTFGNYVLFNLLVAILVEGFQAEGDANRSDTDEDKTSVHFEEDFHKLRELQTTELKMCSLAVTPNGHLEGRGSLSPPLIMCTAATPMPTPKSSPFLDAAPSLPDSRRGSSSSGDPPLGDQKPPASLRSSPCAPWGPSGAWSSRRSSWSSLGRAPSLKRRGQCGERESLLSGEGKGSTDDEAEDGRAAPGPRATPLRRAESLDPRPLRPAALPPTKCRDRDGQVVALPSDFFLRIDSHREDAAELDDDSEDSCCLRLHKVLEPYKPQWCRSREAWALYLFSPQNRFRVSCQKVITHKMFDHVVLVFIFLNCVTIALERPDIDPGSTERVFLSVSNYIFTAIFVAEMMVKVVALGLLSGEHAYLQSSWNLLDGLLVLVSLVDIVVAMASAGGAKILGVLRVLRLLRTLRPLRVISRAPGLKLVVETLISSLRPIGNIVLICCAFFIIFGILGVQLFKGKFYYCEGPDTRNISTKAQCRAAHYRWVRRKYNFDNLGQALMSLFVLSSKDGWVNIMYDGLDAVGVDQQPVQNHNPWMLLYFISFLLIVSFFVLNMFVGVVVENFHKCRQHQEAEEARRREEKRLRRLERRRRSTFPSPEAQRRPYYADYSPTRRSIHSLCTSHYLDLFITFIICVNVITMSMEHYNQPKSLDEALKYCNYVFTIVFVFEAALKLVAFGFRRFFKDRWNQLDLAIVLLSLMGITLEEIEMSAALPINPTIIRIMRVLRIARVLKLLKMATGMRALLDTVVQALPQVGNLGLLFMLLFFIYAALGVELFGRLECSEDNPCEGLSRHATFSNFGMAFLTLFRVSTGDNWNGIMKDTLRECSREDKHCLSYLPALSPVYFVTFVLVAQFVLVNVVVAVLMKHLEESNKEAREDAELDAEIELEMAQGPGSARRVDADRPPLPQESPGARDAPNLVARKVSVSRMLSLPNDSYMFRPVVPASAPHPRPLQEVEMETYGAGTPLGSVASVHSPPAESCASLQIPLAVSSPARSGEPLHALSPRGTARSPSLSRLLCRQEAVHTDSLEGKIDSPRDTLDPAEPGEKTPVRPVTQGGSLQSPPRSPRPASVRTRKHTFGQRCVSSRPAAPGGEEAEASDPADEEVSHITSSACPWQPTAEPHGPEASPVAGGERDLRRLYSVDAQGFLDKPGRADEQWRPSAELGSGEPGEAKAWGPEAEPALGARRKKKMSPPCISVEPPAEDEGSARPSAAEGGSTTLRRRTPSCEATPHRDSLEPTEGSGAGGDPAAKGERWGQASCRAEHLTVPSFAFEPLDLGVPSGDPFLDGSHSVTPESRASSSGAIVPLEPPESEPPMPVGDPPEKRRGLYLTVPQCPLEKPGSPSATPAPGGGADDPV
For the next assay, the target named is Cytochrome P450 3A4 (Homo sapiens, UniProt P08684).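 Also: CYP3A4 tested as one member of a cytochrome P450 panel screen.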
The target in assay [5] is T2, Alkaline phosphatase, tissue-nonspecific isozyme (Homo sapiens, UniProt P05186).
T2 sequence (P05186 whole entry): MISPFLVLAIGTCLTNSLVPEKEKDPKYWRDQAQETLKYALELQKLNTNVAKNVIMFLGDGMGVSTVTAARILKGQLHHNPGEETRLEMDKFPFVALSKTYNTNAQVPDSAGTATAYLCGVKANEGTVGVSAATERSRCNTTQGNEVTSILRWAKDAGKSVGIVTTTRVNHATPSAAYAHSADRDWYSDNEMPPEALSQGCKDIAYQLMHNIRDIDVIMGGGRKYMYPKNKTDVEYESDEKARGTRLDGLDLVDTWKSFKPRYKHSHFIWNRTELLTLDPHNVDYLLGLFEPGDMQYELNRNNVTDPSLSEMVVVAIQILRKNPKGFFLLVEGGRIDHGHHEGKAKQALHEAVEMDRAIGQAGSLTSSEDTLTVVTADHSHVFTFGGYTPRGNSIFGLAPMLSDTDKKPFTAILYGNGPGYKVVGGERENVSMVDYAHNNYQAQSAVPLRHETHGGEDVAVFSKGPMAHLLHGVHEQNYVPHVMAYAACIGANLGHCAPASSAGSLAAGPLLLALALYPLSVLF
As to the kind of experiment: human TNAP enzyme inhibitors, SAR follow-up, biochemical, luminescent, dose response (AID 1056).

Assay [6] has as its target DNA dC->dU-editing enzyme APOBEC-3A (Homo sapiens, UniProt P31941). As to the kind of experiment: APOBEC3A DNA deaminase inhibitors, dose response, biochemical (AID 504722). The assay is classed as functional.
For assay [7], the target named is DNA dC->dU-editing enzyme APOBEC-3G (Homo sapiens, UniProt Q9HC16). As to the kind of experiment: Dose Response confirmation of small molecule APOBEC3G DNA Deaminase Inhibitors via a fluorescence-based single-stranded DNA deaminase assay. [Related pubchem assays (depositor defined):AID493012, AID493028]. The assay is classed as functional.
DNA dC->dU-editing enzyme APOBEC-3G, sequence (Q9HC16 whole entry): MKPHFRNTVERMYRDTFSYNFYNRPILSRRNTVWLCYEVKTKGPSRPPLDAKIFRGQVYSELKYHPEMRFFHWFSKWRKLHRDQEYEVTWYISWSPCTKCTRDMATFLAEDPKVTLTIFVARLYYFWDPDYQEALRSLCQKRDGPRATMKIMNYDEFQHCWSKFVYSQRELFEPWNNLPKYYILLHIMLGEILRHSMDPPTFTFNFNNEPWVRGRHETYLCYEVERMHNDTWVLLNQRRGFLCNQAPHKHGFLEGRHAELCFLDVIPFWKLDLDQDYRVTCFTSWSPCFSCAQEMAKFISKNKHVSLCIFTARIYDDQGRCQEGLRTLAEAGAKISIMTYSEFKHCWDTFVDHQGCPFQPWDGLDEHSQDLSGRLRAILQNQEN
For assay [8], the target named is Intestinal-type alkaline phosphatase (Homo sapiens, UniProt P09923). As to the kind of experiment: Dose Response confirmation of uHTS hits from a small molecule inhibitors of human intestinal alkaline phosphatase via a luminescent assay. [Related pubchem assays (depositor defined):AID2544, AID2574]. The assay is classed as functional.
Intestinal-type alkaline phosphatase, sequence (P09923 whole entry): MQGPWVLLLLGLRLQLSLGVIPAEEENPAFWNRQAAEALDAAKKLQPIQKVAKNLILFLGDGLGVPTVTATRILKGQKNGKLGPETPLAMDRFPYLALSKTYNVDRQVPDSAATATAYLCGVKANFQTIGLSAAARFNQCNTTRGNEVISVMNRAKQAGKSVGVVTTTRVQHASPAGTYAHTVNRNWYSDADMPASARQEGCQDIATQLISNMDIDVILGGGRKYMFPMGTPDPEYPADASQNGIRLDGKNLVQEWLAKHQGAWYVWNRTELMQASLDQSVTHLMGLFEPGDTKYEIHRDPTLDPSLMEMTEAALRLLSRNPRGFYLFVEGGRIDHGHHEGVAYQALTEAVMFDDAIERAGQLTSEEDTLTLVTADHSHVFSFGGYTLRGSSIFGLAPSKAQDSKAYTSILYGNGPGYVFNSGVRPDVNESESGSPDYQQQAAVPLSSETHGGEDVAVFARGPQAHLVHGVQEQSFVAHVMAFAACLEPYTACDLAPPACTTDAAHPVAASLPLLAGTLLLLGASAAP
Assay [9] can be described thus: A Cell Based Secondary Assay To Explore Cytotoxicity of Compounds that Sensitize Mycobacterium Tuberculosis to Beta-Lactam Antibiotics. The assay is classed as functional.
Assay [10] has as its system BJ. As to the kind of experiment: cytotoxicity toward BJ-TERT fibroblasts, dose response, cell-based, RAS-independent, luminescence (AID 1933). The assay is classed as functional. As to conditions: Homo sapiens.
Assay [11] concerns BJ. As to the kind of experiment: cells. As to conditions: Homo sapiens. The assay is classed as functional, cell-based.
Assay [12] in a line: inhibitors of intracellular T. cruzi replication, confirmation, NIH3T3 host cells, beta-gal luminescence (AID 2044).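 Also: intracellular parasites grown in NIH/3T3 mouse fibroblasts as host cells; luminescent beta-galactosidase reporter signal from transgenic T. cruzi replicating inside host cells; inhibitors lower the luminescence signal.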 The assay is classed as functional, cell-based.
Assay [13] is described as follows: cytotoxicity toward NIH3T3 fibroblasts, dose response, counter-screen, cell-based, ATP luminescence, mouse fibroblasts (AID 2010).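 Also: cells exposed to compound for about 90 hours before reading.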 The assay is classed as functional.
The test system of assay [14] is BJ. As to the kind of experiment: cytotoxicity toward BJ-TERT-LT-ST fibroblasts, dose response, cell-based, RAS-independent, luminescence (AID 1935).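 Also: BJ fibroblasts immortalized with TERT plus LT and ST oncogenes.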 The assay is classed as functional. To be noted: Homo sapiens.
A short description of assay [15]: cytotoxicity toward DRD oncogenic fibroblasts, dose response, cell-based, non-viral oncogenic, luminescence (AID 1934). To be noted: Homo sapiens. The assay is classed as functional.
Assay [16] can be described thus: cytotoxicity in HEK-293T cells, dose response, cytotoxicity control for BCR NF-kB inhibitor project, luminescence, B-cell screen hits (AID 489021).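 Also: HEK-293T cells carrying an NF-kB luciferase reporter; cells exposed to compound for about 14 hours before viability readout.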 The assay is classed as functional, cell-based.
Assay [17] concerns the target T3, Replicative DNA helicase DnaB (Mycobacterium tuberculosis, UniProt P9WMR3).
T3 sequence (P9WMR3 whole entry): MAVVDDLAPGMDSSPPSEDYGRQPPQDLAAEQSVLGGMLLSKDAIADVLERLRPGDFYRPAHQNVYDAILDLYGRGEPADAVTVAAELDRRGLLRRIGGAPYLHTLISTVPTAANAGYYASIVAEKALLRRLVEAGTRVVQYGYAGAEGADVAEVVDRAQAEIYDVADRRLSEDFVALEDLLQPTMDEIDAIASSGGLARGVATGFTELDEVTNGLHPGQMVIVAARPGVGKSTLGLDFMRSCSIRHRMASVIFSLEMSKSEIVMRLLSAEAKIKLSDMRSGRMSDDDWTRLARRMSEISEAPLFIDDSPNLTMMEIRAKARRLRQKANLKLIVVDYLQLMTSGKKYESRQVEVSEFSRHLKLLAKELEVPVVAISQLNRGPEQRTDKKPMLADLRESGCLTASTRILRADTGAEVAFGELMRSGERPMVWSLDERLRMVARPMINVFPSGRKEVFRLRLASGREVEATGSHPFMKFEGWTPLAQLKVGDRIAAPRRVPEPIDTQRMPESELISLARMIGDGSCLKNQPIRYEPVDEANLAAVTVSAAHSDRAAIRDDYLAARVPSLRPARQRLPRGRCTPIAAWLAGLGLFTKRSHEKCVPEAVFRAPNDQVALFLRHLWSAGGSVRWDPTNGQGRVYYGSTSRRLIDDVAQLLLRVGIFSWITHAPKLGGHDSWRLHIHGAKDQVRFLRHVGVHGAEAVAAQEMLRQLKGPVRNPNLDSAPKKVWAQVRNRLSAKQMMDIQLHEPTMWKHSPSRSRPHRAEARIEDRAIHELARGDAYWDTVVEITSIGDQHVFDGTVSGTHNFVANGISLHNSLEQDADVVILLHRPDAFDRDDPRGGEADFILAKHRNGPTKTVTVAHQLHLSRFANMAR
As to the kind of experiment: DnaB intein splicing inhibitors, dose response, biochemical, cell-free fluorescence (AID 449749). The assay is classed as functional.

Another assay concerns the target T4, Protein RecA (Mycobacterium tuberculosis, UniProt P9WHJ3).
T4 sequence (P9WHJ3 whole entry): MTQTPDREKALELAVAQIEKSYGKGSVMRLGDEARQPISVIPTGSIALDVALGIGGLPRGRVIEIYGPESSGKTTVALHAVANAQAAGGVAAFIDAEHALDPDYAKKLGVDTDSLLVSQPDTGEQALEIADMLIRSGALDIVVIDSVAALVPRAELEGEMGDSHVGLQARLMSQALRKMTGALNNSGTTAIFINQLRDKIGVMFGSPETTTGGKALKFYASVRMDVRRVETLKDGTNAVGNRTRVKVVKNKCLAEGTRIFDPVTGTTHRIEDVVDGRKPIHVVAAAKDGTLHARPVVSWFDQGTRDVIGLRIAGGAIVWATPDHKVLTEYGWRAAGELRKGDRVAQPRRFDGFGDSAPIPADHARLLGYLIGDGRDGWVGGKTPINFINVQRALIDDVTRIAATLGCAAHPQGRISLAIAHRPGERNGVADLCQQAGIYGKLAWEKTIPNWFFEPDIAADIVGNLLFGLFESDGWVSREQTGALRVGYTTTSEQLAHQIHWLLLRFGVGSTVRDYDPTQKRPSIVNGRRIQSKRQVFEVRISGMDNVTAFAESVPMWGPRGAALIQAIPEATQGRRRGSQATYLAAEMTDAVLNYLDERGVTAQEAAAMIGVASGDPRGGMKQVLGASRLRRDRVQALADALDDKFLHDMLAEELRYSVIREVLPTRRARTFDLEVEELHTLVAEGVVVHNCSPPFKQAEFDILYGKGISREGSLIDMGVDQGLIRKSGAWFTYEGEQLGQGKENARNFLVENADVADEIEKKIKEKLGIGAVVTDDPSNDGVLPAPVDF
As to the kind of experiment: Fluorescence Cell-Free Homogeneous Dose Retest to Identify Inhibitors of RecA-Intein Splicing Activity. [Related pubchem assays (depositor defined):AID2097, AID2223, AID489010, AID492950]. The assay is classed as functional.

A further assay has as its target Protein Wnt-3a (Mus musculus, UniProt P27467). As to the kind of experiment: Wnt3a-driven reporter signaling inhibition, dose response, selectivity assay for Gli-SUFU antagonist project, Wnt-LIGHT cells, luminescence (AID 651570).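 Also: Wnt-LIGHT reporter cells stimulated with conditioned medium from Wnt3a-producing cells.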 The assay is classed as functional. As to conditions: read-out: IC50_Mean.
The target in the next assay is Large T antigen (Simian virus 40, UniProt P03070). The assay is classed as functional, Betapolyomavirus macacae.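 Also: Confirmatory-stage PubChem screen for compounds that inhibit SV40 T antigen.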
Large T antigen, sequence (P03070 whole entry): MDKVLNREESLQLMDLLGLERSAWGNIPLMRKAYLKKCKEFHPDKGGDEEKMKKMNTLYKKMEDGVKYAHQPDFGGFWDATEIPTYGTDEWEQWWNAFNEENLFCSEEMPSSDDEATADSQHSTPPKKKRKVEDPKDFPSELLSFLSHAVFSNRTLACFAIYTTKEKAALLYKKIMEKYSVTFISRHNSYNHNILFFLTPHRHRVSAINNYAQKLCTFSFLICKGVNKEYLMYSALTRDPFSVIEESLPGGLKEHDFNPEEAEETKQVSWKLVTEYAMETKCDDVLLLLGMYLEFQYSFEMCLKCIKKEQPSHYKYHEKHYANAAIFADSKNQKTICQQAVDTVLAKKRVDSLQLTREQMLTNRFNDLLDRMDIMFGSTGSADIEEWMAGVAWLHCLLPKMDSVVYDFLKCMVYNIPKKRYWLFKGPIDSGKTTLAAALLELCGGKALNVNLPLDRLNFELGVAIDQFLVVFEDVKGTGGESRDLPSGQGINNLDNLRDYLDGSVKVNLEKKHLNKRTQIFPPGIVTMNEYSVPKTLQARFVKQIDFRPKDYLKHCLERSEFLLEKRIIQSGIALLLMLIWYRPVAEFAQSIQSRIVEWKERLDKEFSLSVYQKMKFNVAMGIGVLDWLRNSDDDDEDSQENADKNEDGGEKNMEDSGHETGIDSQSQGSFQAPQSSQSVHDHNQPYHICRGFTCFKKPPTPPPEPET

Structures are written as SMILES. Active and inactive are the calls of the source. Bounds are passed on as bounds.

DNA dC->dU-editing enzyme APOBEC-3A, sequence (P31941 whole entry): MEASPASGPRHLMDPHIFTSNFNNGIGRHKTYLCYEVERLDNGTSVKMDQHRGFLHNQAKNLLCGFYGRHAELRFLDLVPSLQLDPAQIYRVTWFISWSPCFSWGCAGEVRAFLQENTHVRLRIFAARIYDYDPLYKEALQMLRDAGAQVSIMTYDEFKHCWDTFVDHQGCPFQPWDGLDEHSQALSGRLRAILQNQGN
Glyceraldehyde-3-phosphate dehydrogenase, sequence (P04406 whole entry): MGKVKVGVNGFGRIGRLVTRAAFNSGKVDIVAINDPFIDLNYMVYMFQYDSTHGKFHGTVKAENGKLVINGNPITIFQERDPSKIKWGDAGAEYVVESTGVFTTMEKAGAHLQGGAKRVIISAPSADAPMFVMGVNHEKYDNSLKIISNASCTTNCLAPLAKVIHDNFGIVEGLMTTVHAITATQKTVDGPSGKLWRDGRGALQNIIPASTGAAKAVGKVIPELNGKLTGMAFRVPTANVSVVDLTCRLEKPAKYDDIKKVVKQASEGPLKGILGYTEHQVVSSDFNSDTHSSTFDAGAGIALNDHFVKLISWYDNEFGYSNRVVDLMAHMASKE
Protein Wnt-3a, sequence (P27467 whole entry): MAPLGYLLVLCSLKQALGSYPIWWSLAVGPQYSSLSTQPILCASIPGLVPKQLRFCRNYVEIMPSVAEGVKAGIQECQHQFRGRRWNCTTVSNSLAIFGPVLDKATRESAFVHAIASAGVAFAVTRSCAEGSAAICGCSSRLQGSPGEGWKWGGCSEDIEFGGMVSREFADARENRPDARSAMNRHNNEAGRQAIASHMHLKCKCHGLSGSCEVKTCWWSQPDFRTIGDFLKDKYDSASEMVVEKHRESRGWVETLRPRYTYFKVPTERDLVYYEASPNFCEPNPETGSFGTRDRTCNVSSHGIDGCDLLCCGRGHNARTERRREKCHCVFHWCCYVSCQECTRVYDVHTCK

For `O=S(=O)(O)c1ccc2cc(/N=N/c3cc(S(=O)(=O)O)c4cccnc4c3O)ccc2c1`, the IC50 in assay [1] was > 100 µM (not active); in [2], 5.1 µM (active); in assay [3], 4.19 µM (active).
With `O=C(Cc1ncc(C(F)(F)F)cc1Cl)Nc1cccc(Br)c1`, in assay [4], the concentration giving a half-maximal response (EC50) was 4.24 µM (active). The AC50 on Cytochrome P450 3A4 was 14.1 µM (inconclusive).
Regarding `CCCCc1ccc(S(=O)(=O)Nc2cnc3ccccc3c2)cc1`, the IC50 in [1] was > 100 µM (not active); in [5], > 100 µM (inactive).
Turning to `COC(=O)CSc1nnc(S)s1`, the IC50 in assay [6] is > 100 µM (inactive); in assay [7] it was 17 µM (active).
As to `COC(=O)c1cc(C#N)c(Oc2ccccc2OC)nc1C`, the IC50 in [8] was > 100 µM (inactive).
Consider `O=C(c1cnn2c(C(F)(F)F)cc(-c3cccs3)nc12)N1CCN(C(c2ccccc2)c2ccccc2)CC1`, for which, in assay [9], the CC50 is > 40 µM (active). The EC50 in assay [4] was 6.75 µM (active).
As to `CCOc1ccc(NC(=O)CSc2nncn2C)cc1`, the IC50 in assay [8] was > 100 µM (inactive).
For `COc1ccc(C(C(=O)NC2CCCCC2)N(C(=O)CCl)c2ccc(Cl)cc2)cc1` (configuration not stated), the EC50 with BJ [10] is 0.152 µM (active); in the assay with BJ [11], 2.51 µM (active); in [12], 0.166 µM (active); in assay [13] it was 1.23 µM (active); with BJ [14] it was 4.11 µM (inconclusive); in assay [15], 0.681 µM (active). Besides, on Protein RecA, the EC50 was 0.236 µM (active). Also, the IC50 was > 80 µM (inactive) in assay [16] and 3.16 µM (active) on Protein Wnt-3a. In [17], the AC50 is 0.774 µM (active).
In the case of `COc1cc(Cl)ccc1OCc1cc(C(=O)N2CCCCCCC2)no1`, in assay [8], the IC50 was > 100 µM (inactive).
Take `CCSS(=O)(=O)c1cccc2cccnc12`: the IC50 on Large T antigen was > 100 µM (active); in assay [6], > 100 µM (inactive); in [7] it was 12.7 µM (active).
